Experimental data: article PMC9268591, “Anti-Inflammatory, Analgesic and Antioxidant Potential of New (2S,3S)-2-(4-isopropylbenzyl)-2-methyl-4-nitro-3-phenylbutanals and Their Corresponding Carboxylic Acids through In Vitro, In Silico and In Vivo Studies” (Molecules, 2022)
Several values for one entry are separate records, joined by “and”; a condition that tells them apart may be missing. Equal entries are not always repeated. Marks after values point to notes of the source that are not given here.

What was measured:
[1] = tested on: mice; experiment: Formalin-induced paw-licking test; conditions: 5 mg/kg i.p.
Procedure: Swiss albino mice of both sexes with an average weight of 30 to 35 g were obtained from the respective section of NIH (National Institute of Health) Islamabad, Pakistan.
The early phase was initially five minutes, while the late phase was 15-30 min. In both the phases, the mice were under observation for licking. As per the protocols, naloxone (2 mg/kg), indomethacin (10 mg/kg) and morphine (5 mg/kg) were used [28].

[2] = tested on: mice; experiment: Hot plate test; set-up: species or system Swiss albino mice; conditions: mouse, in vivo
[3] = tested on: albino mice; experiment: Carrageenan-induced inflammation; type: in vivo, Swiss albino mice; conditions: standard aspirin (100 mg/kg in method)
Procedure: After the acute toxicity studies, the carrageenan-induced inflammation assay was performed on the compounds having a safety profile within limit. Forty (40) albino mice of both sexes were alienated into five different groups, with eight mice in each group. Group I was tagged as the negative control group and was administered dimethylsulfoxide (10 mL/kg, 10% v/v) and phosphate buffer (150 µL). Group II was tagged as the standard/positive control group and received a dose of aspirin (100 mg/kg in 0.9% normal saline). The remaining groups (III, IV and V) were tagged as experimental groups and received synthesized compounds (25, 50 and 100 mg/kg in DMSO) and Tween-80 in normal saline. After half an hour, carrageenan suspension (0.05 mL, 1% w/v in saline) was injected into the animals. After the injection of the irritant/carrageenan, the inflammation in the paws was measured by a plethysmometer in intervals (1 to 5 h). The inflammation in the paws of animals in different groups was compared with that of the vehicle, and the percent anti-inflammatory activities were recorded as per the standard method.

[4] = tested on: albino mice; experiment: Acetic acid induced writhing test; type: in vivo, Swiss albino mice; conditions: standard drug 10 mg/kg
Procedure: The acetic induced analgesic assay on the compounds FM10 and FM12 was performed to determine the role of the peripheral pathway. The albino mice of both sexes were divided into two groups. Compounds FM10 and FM12 were administered to both the groups in doses of 25 and 50 mg/kg. After 1 h, acetic acid was injected intraperitoneally in the strength of 10 mL/kg. The negative control was Tween 80 1% solution in the strength of 10 mL/kg. […] The activities in animals were determined from the number of stretchings and writings.

## CN1CC[C@]23c4c5ccc(O)c4O[C@H]2[C@@H](O)C=C[C@H]3[C@H]1C5 [Morphine]
[1]; early phase
  Percent (%) inhibition, 0–5 min: 88.64 *** %
  Time spent (licking) 0–5 min: 6.50 ± 0.78 s
[1]; early phase, listed as morphine
  Percent (%) inhibition, 0–5 min: 88.64%
[1]; late phase
  Percent (%) inhibition, 15–30 min: 93.81 *** %
  Time spent (licking) 15–30 min: 4.83 ± 0.62 s
[1]; late phase, listed as morphine
  Percent (%) inhibition, 15–30 min: 93.81%
[2]
  Reaction time on hot plate: 12.88 ± 0.26 min and 12.31 ± 0.62 min and 11.86 ± 0.87 min

## CC(=O)Oc1ccccc1C(=O)O [aspirin, acetylsalicylic acid]
[3]; first hour
  Anti-inflammatory activity, carrageenan assay: 52.77%
[3]; fourth hour
  Anti-inflammatory activity, carrageenan assay: 61.43%
[4]
  Mean inhibition of writhes: 73.01%
